Data: patent US9572760B2, “Uses of compounds and mixtures from Antrodia cinnamomea mycelia” (Simpson Biotech Co., Ltd., priority 2013, dated 2017)

Key:
[1] = test system: TGFb1-treated immortalized HSC; experiment: Profibrogenic gene expression in immortalized HSC with recombinant TGF-β treatment (qRT-PCR); type: cell-based, human; conditions: for Collagen-1 expression / TGF-β expression / TIMP-1 expression / αSMA expression: compounds 72 hours, then TGF-β (3 ng/ml) 48 hours
Description: The AML12 (mouse hepatocyte) cells were obtained from the BCRC (Bioresource Collection and Research Center) and cultured in Dulbecco's modified Eagle media (DMEM, Gibco by Invitrogen) with 1% antibiotic antimycotic (Gibco by Invitrogen) and 15% fetal bovine serum (Gibco by Invitrogen). The human Hepatic Stellate Cell, HSC cell line was obtained from the ScienCell Research Laboratory (USA) and cultured in complete medium, Stellate Cell Medium (ScienCell Research Laboratory) with 2% fetal bovine serum (ScienCell Research Laboratory), 1% stellate cell growth supplement (ScienCell Research Laboratory) and 1% penicillin/streptomycin solution (ScienCell Research Laboratory). […] For primary hepatic stellate cell isolation, C57BL/6 mice were anesthetized by intraperitoneal injection of ketamine and xylazine. […] Mouse livers were perfused in situ with 0.5 mM EGTA containing calcium-free salt solution (8 ml/min, 37° C. for 5 minutes), followed by perfusion with 2-step 0.05% collagenase D and pronase containing buffer (Roche Molecular Biochemicals, Indianapolis, Ind.) for 5 and 10 minutes, respectively. The harvested liver was minced gently on a Petri dish and additional incubation with protease containing buffer at 37° C. for 25 minutes. Then, the liver was filtered with 70 μm cell strainer. Cells were centrifuged and collected followed by 8.2% Nycodenz (Accurate Chemical and Scientific Corp.). The cell lines were cultured at 37° C. in a humidified atmosphere containing 5% CO2.
Exponentially growing cells were harvested and seeded in a 6-well microtiter plate. Each well of cells were collected to eppendrof in 1 mL of TRIzol buffer (Invitrogen, Carlsbad, Calif., USA), and then mixed with 0.5 mL chloroform/isoamyl alcohol (24:1), eppendrofs were centrifuged at 12,000×g for 10 min at 4° C. The supernatant was transferred to a fresh tube, and isopropanol was added, mix well and stored at −80° C. overnight. The reaction mixture was centrifuged at 12,000×g for 30 min at 4° C. to produce a rude RNA pallet, the pellet was washed with 70% ethanol and air-dried. The concentrations of total RNA were measured by absorbance at 260 nm using a NanoDrop ND-1000 (NanoDrop, USA).
Reverse transcription reaction was performed using a commercially available set of High Capacity RNA-to-cDNA Kit (Applied Biosystems, USA). cDNA was prepared from 2 μg of total RNA per 20 μl reaction, according to the manufacturer's instructions—37° C. for 60 minutes, 95° C. for 5 minutes, and hold at 4° C. The resulting cDNA was to a final concentration of 100 ng/μl and constituted a matrix in further experiments.
Amplification and detection the gene expression by real-time PCR were performed using StepOne plus Real-time PCR System (Applied Biosystems, USA). Samples were assayed in a 10 μl reaction mixture containing 2 μl of template DNA, 5 μl of 2× TaqMan PCR Master Mix (Applied Biosystems, Life Technologies, Foster City, Calif., USA), 0.5 μl of 20× assay mix containing probe, forward and reverse primer (Applied Biosystems, Life Technologies, Foster City, Calif., USA), whereby qPCR targets with the following information were used: (a) α-SMA, Assay ID Rn01759928_g1, (b) TIMP-1, Assay ID Rn00587558_m1, (c) TGF-β1, Assay ID Rn00572010_m1, (d) Collagen I, Assay ID Rn 01463838_m1, (e) GAPDH, Assay ID Rn1462662_g1. To control variation in mRNA concentration, all results were normalized to the housekeeping gene, GAPDH. Relative quantitation was performed using the comparative ΔΔCt method according to the manufacturer's instructions. The cycling conditions used were as follows: 50° C. for 2 min, 95° C. for 10 min followed by 40 cycles of 95° C. for 15 s and 60° C. for 1 min each. […]

cirrhotic animals = experiment: Redox status (Glutathione level, GSH:GSSG ratio) in cirrhotic animals; type: in vivo, Wistar rats; conditions: compound B 7 mg/kg, compound C 14 mg/kg
Protocol: A commercially available kit (# K264-100, BioVision) was used to measure glutathione (GSH), and oxidized glutathione (GSSG). […] The assay was conducted with several modifications to the manufacturer's directions. Briefly, cellular pellet (˜10 mg) was homogenized immediately, and take 60 μl of each sample to a prechilled tube containing Perchloric Acid and centrifuged at 13,000×g for 2 min, collect supernatant and stored at −80° C. until analyzed. The assay was conducted as described by the manufacturer. Briefly, cold 3N KOH was added to each sample mixed, and centrifuged at 13,000×g for 10 min. Ten microliters of each sample and the appropriate buffer and 90 μl of Assay Buffer to detect GSH and 10 μl of glutathione reductase were mixed to detect total glutathione and 10 μl of GSH Quencher to detect GSSG and incubated at room temperature for 40 min and the absorbance of each sample was read at 340/420 nm for 3 min. The protein concentration for each sample was determined via a DC protein concentration assay (Bio-Rad). Signals from each sample were normalized to the corresponding protein content of that sample.

Structure (SMILES) | anti-fibrosis effect on immortalized HSC in response to TGF-β (summary) [1] | Collagen-1 expression [1] | TGF-β expression [1] | TIMP-1 expression [1] | αSMA expression [1] | Redox status: GSH:GSSG ratio (cirrhotic animals) | Redox status: Glutathione level (cirrhotic animals)
CC(C)=CCOc1ccc(C2=C(CC(C)C)C(=O)NC2=O)cc1 [Compound B, 3-isobutyl-4-[4-(3-methyl-2-butenyloxy)phenyl]-1H-pyrrol-2,5-dione] | anti-fibrosis effect | dose-dependent effect | dose-dependent effect | dose-dependent effect | dose-dependent effect | significantly improved | significantly improved
CC(C)=CCOc1ccc(C2=C(CC(C)C)C(=O)N(O)C2=O)cc1 [Compound C, 3-isobutyl-4-[4-(3-methyl-2-butenyloxy)phenyl]-1H-pyrrol-1-ol-2,5-dione] | anti-fibrosis effect | dose-dependent effect | dose-dependent effect | dose-dependent effect | dose-dependent effect | significantly improved | significantly improved
